≈ marks a conversion by molar mass, not a printed value.
Assays:
Type in all cases: functional
Candida albicans = test: Antifungal activity against Candida albicans SS5314 assessed as reduction in fungal growth by CLSI based broth microdilution method
Escherichia coli [1] = test: Antibacterial activity against Escherichia coli JW55031 harboring tolC mutation assessed as reduction in bacterial growth by CLSI based broth microdilution method
Clostridioides difficile = test: Antibacterial activity against Clostridium difficile BAA1870 assessed as reduction in bacterial growth by CLSI based broth microdilution method
Escherichia coli [2] = test: Antibacterial activity against Escherichia coli BW25113 assessed as reduction in bacterial growth by CLSI based broth microdilution method
Staphylococcus aureus = test: Antibacterial activity against methicillin resistant Staphylococcus aureus subsp. aureus USA300 assessed as reduction in bacterial growth by CLSI based broth microdilution method

Row | Structure (SMILES) | MIC (Candida albicans) [µg/mL] | MIC (Escherichia coli [1]) [µg/mL] | MIC (Clostridioides difficile) [µg/mL] | MIC (Escherichia coli [2]) [µg/mL] | MIC (Staphylococcus aureus) [µg/mL]
1 | Cc1nc(-c2ccc(C(C)(C)C)cc2)sc1-c1nnc(N2CC[C@@H](N(C)C)C2)o1 | > 64 | > 64 | > 64 | > 64 | > 64
2 | Cc1nc(-c2ccc(C(C)(C)C)cc2)sc1-c1nnc(NC2CCNC2)o1 (stereo not given) | > 64 | 32 (≈ 83.4 µM) | 16 (≈ 41.7 µM) | > 64 | 32 (≈ 83.4 µM)
3 | Cc1nc(-c2ccc(C(C)(C)C)cc2)sc1-c1nnc(N[C@@H]2CCCC[C@H]2N)o1 (relative stereo) | 64 (≈ 156 µM) | > 64 | 16 (≈ 38.9 µM) | > 64 | 64 (≈ 156 µM)
4 | Cc1nc(-c2ccc(C(C)(C)C)cc2)sc1-c1nnc(NC(CO)CO)o1 | > 64 | > 64 | > 64 | > 64 | > 64
5 | Cc1nc(-c2ccc(C(C)(C)C)cc2)sc1-c1nnc(N2CCC[C@@H]2CO)o1 | > 64 | > 64 | 32 (≈ 80.3 µM) | > 64 | > 64
6 | Cc1nc(-c2ccc(C(C)(C)C)cc2)sc1-c1nnc(NCC(O)CO)o1 (stereo not given) | > 64 | > 64 | 32 (≈ 82.4 µM) | > 64 | > 64
7 | Cc1nc(-c2ccc(C(C)(C)C)cc2)sc1-c1nnc(N2CCC[C@H]2CO)o1 | > 64 | > 64 | 16 (≈ 40.1 µM) | > 64 | > 64
8 | Cc1nc(-c2ccc(C(C)(C)C)cc2)sc1-c1nnc(N2CCC[C@@H]2C(N)=O)o1 | > 64 | > 64 | 32 (≈ 77.8 µM) | > 64 | > 64
9 | Cc1nc(-c2ccc(C(C)(C)C)cc2)sc1-c1nnc(NCCO)o1 | > 64 | > 64 | 32 (≈ 89.3 µM) | > 64 | > 64
10 | Cc1nc(-c2ccc(C(C)(C)C)cc2)sc1-c1nnc(N2CCC[C@H]2C(N)=O)o1 | > 64 | 64 (≈ 156 µM) | 32 (≈ 77.8 µM) | > 64 | > 64
11 | Cc1nc(-c2ccc(C(C)(C)C)cc2)sc1-c1nnc(NCCCN)o1 | 16 (≈ 43.1 µM) | > 64 | 64 (≈ 172 µM) | > 64 | > 64
12 | Cc1nc(-c2ccc(C(C)(C)C)cc2)sc1-c1nnc(N[C@H]2CC[C@H](N)CC2)o1 | 8 (≈ 19.4 µM) | 32 (≈ 77.8 µM) | 8 (≈ 19.4 µM) | > 64 | 32 (≈ 77.8 µM)

Source: ChEMBL document CHEMBL4680171, “Oxadiazolylthiazoles as novel and selective antifungal agents” (Eur J Med Chem, 2020)
